From patent US8722676B2, “Bicyclic piperazine compounds” (Genentech, Inc., priority 2011, dated 2014)

These molecules were tested on production of CD69 by B lymphocytes in human whole blood activated with goat F(ab')2 anti-human IgM (assay: CD69 Whole Blood Assay (CD69 Hu Blood FACS)). Conditions: anti-IgM stimulated, 20 hour incubation, CD69+ of CD20+ cells, Table 1.
Type: cell-based
Description: A CD69 Whole Blood Assay can be conducted on Formula I compounds to determine the ability of compounds to inhibit the production of CD69 by B lymphocytes in human whole blood activated by crosslinking surface IgM with goat F(ab′)2 anti-human IgM (Example 907). CD69 is a type II C-type lectin involved in lymphocyte migration and cytokine secretion. CD69 expression represents one of the earliest available indicators of leukocyte activation and its rapid induction occurs through transcriptional activation (Vazquez et al (2009) Jour. of Immunology Published Oct. 19, 2009, doi:10.4049/jimmunol.0900839). Concentration-dependent inhibition of antigen receptor stimulation by selective Btk inhibitors induces cell surface expression of the lymphocyte activation marker CD69 (Honigberg et al (2010) Proc. Natl. Acad. Sci. 107(29):13075-13080). Thus, CD69 inhibition by selective Btk inhibitors may be correlated with therapeutic efficacy of certain B-cell disorders.
Human blood is obtained from healthy volunteers, with the following restrictions: 1 week drug-free, non-smokers. Blood (approximately 20 mls to test 8 compounds) is collected by venipuncture into Vacutainer® (Becton, Dickinson and Co.) tubes with sodium heparin.
Solutions of Formula I compounds at 10 mM in DMSO are diluted 1:10 in 100% DMSO, then are diluted by three-fold serial dilutions in 100% DMSO for a ten point dose-response curve. The compounds are further diluted 1:10 in PBS and then an aliquot of 5.5 μl of each compound is added in duplicate to a 2 ml 96-well plate; 5.5 μl of 10% DMSO in PBS is added as control and no-stimulus wells. Human whole blood—HWB (100 μl) is added to each well. After mixing the plates are incubated at 37° C., 5% CO2, 100% humidity for 30 minutes. Goat F(ab′)2 anti-human IgM (10 μl of a 500 μg/ml solution, 50 μg/ml final) is added to each well (except the no-stimulus wells) with mixing and the plates are incubated for an additional 20 hours. At the end of the 20 hour incubation, samples are incubated with fluorescent labeled antibodies for 30 minutes, at 37° C., 5% CO2, 100% humidity. Include induced control, unstained and single stains for compensation adjustments and initial voltage settings. Samples are then lysed with PharM Lyse™ (BD Biosciences Pharmingen) according to the manufacturer's instructions. Samples are then transferred to a 96 well plate suitable to be run on the BD Biosciences HTS 96 well system on the LSRII machine. Data acquired and Mean Fluorescence Intensity values were obtained using BD Biosciences DIVA Software. Results are initially analyzed by FACS analysis software (Flow Jo).
`CN1CCN(c2ccc(Nc3cc(-c4cc(F)cc(N5CCn6c(cc7c6CCCC7)C5=O)c4CO)cn4ccnc34)nc2)CC1` [Compound 101, 2-(5-Fluoro-2-(hydroxymethyl)-3-(8-(5-(4-methylpiperazin-1-yl)pyridin-2-ylamino)imidazo[1,2-a]pyridin-6-yl)phenyl)-3,4,6,7,8,9-hexahydropyrazino[1,2-a]indol-1(2H)-one] showed a CD69 Hu Blood FACS IC70 of 7 nM.
In the case of `O=C1c2cc3c(n2CCN1c1cc(F)cc(-c2cc(Nc4ccc(N5CCN(C6COC6)CC5)cn4)c4nccn4c2)c1CO)CCCC3` [Compound 102, 2-(5-Fluoro-2-(hydroxymethyl)-3-(8-(5-(4-(oxetan-3-yl)piperazine-1-yl)pyridine-2-ylamino)imidazo[1,2-a]pyridin-6-yl)phenyl)-3,4,6,7,8,9-hexahydro-pyrazino[1,2-a]indol-1(2H)-one], the CD69 Hu Blood FACS IC70 is reported as 11 nM.
`CN1CCN(c2ccc(Nc3cc(-c4cc(F)cc(N5CCc6c(sc7c6CCCC7)C5=O)c4CO)cn4ccnc34)nc2)CC1` [Compound 103, 5-[5-Fluoro-2-(hydroxymethyl)-3-{(8-(5-(4-methylpiperazin-1-yl)pyridine-2-ylamino)imidazo[1,2-a]pyridin-6-yl)}phenyl]-8-thia-5-azatricyclo[7.4.0.0^2,7]trideca-1(9),2(7)-dien-6-one] showed a CD69 Hu Blood FACS IC70 of 319 nM.
Molecule `CN1CCN(c2ccc(Nc3cc(-c4cc(F)cc(N5CCn6c(cc7c6CCCC7)C5=O)c4CO)nn4ccnc34)nc2)CC1` [Compound 104, 2-(5-Fluoro-2-(hydroxymethyl)-3-(8-(5-(4-methylpiperazin-1-yl)pyridin-2-ylamino)imidazo[1,2-b]pyridazin-6-yl)phenyl)-3,4,6,7,8,9-hexahydropyrazino[1,2-a]indol-1(2H)-one] has a CD69 Hu Blood FACS IC70 of 96 nM.
Work on `O=C1c2cc3c(n2CCN1c1cc(F)cc(-c2cc(Nc4ccc(N5CCN(C6COC6)CC5)cn4)c4nccn4n2)c1CO)CCCC3` [Compound 105, 2-(5-Fluoro-2-(hydroxymethyl)-3-(8-(5-(4-(oxetan-3-yl)piperazin-1-yl)pyridin-2-ylamino)imidazo[1,2-b]pyridazin-6-yl)phenyl)-3,4,6,7,8,9-hexahydro-pyrazino[1,2-a]indol-1(2H)-one] yielded a CD69 Hu Blood FACS IC70 of 49 nM.
For `CN1CCN(c2ccc(Nc3nc(-c4cc(F)cc(N5CCn6c(cc7c6CCCC7)C5=O)c4CO)cn4ccnc34)nc2)CC1` [Compound 106, 2-(5-Fluoro-2-(hydroxymethyl)-3-(8-(5-(4-methylpiperazin-1-yl)pyridin-2-ylamino)imidazo[1,2-a]pyrazin-6-yl)phenyl)-3,4,6,7,8,9-hexahydropyrazino[1,2-a]indol-1(2H)-one], the CD69 Hu Blood FACS IC70 was 814 nM.
`O=C1c2cc3c(n2CCN1c1cc(F)cc(-c2cn4ccnc4c(Nc4ccc(N5CCN(C6COC6)CC5)cn4)n2)c1CO)CCCC3` [Compound 107, 2-(5-Fluoro-2-(hydroxymethyl)-3-(8-(5-(4-(oxetan-3-yl)piperazin-1-yl)pyridin-2-ylamino)imidazo[1,2-a]pyrazin-6-yl)phenyl)-3,4,6,7,8,9-hexahydro-pyrazino[1,2-a]indol-1(2H)-one] was tested, and the CD69 Hu Blood FACS IC70 was 939 nM.
In the case of `O=C1c2cc3c(n2CCN1c1cc(F)cc(-c2cc(Nc4ccc(N5CCN(C6COC6)CC5)cn4)c4ncnn4c2)c1CO)CCCC3` [Compound 108, 2-(5-Fluoro-2-(hydroxymethyl)-3-(8-(5-(4-(oxetan-3-yl)piperazin-1-yl)pyridin-2-ylamino)-[1,2,4]triazolo[1,5-a]pyridin-6-yl)phenyl)-3,4,6,7,8,9-hexahydropyrazino[1,2-a]indol-1(2H)-one], the CD69 Hu Blood FACS IC70 is reported as 58 nM.
With `Cn1cnc2c(Nc3ccc(N4CCN(C5COC5)CC4)cn3)cc(-c3cc(F)cc(N4CCn5c(cc6c5CCCC6)C4=O)c3CO)cc21` [Compound 109, 2-(5-Fluoro-2-(hydroxymethyl)-3-(3-methyl-7-(5-(4-(oxetan-3-yl)piperazin-1-yl)pyridin-2-ylamino)-3H-benzo[d]imidazol-5-yl)phenyl)-3,4,6,7,8,9-hexahydropyrazino[1,2-a]indol-1(2H)-one] the CD69 Hu Blood FACS IC70 was 1300 nM.
For `CC1(C)Cc2cc3n(c2C1)CCN(c1cc(F)cc(-c2cc(Nc4ccc(N5CCN(C6COC6)CC5)cn4)c4nccn4n2)c1CO)C3=O` [Compound 110, 10-[5-Fluoro-2-(hydroxymethyl)-3-(8-(5-(4-(oxetan-3-yl)piperazin-1-yl)pyridin-2-ylamino)imidazo[1,2-b]pyridazin-6-yl)phenyl]-4,4-dimethyl-1,10-diazatricyclo[6.4.0.0^2,6]dodeca-2(6),7-dien-9-one], the CD69 Hu Blood FACS IC70 was 15 nM.
For `O=C1c2sc3c(c2CCN1c1cc(F)cc(-c2cc(Nc4ccc(N5CCN(C6COC6)CC5)cn4)c4nccn4n2)c1CO)CCCC3` [Compound 111, 5-[5-Fluoro-2-(hydroxymethyl)-3-(8-(5-(4-(oxetan-3-yl)piperazin-1-yl)pyridin-2-ylamino)imidazo[1,2-b]pyridazin-6-yl)phenyl]-8-thia-5-azatricyclo[7.4.0.0^2,7]trideca-1(9),2(7)-dien-6-one], the CD69 Hu Blood FACS IC70 was 313 nM.
For `O=c1c2sc3c(c2cnn1-c1cc(F)cc(-c2cc(Nc4ccc(N5CCN(C6COC6)CC5)cn4)c4nccn4n2)c1CO)CCCC3` [Compound 112, 5-[5-Fluoro-2-(hydroxymethyl)-3-(8-(5-(4-(oxetan-3-yl)piperazin-1-yl)pyridin-2-ylamino)imidazo[1,2-b]pyridazin-6-yl)phenyl]-8-thia-4,5-diazatricyclo-[7.4.0.0^2,7]trideca-1(9),2(7),3-trien-6-one], the CD69 Hu Blood FACS IC70 was 126 nM.
In the case of `CC1(C)Cc2sc3c(c2C1)CCN(c1cc(F)cc(-c2cc(Nc4ccc(N5CCN(C6COC6)CC5)cn4)c4nccn4n2)c1CO)C3=O` [Compound 113, 10-[5-Fluoro-2-(hydroxymethyl)-3-(8-(5-(4-(oxetan-3-yl)piperazin-1-yl)pyridine-2-ylamino)imidazo[1,2-b]pyridazin-6-yl)phenyl]-4,4-dimethyl-7-thia-10-azatricyclo[6.4.0.0^2,6]dodeca-1(8),2(6)-dien-9-one], the CD69 Hu Blood FACS IC70 is reported as 12 nM.
In the case of `O=C1c2cc3c(n2CCN1c1nccc(-c2cc(Nc4ccc(N5CCN(C6COC6)CC5)cn4)c4nccn4n2)c1CO)CCCC3` [Compound 114, 2-(3-(Hydroxymethyl)-4-(8-(5-(4-(oxetan-3-yl)piperazin-1-yl)pyridin-2-ylamino)imidazo[1,2-b]pyridazin-6-yl)pyridin-2-yl)-3,4,6,7,8,9-hexahydropyrazino[1,2-a]indol-1(2H)-one], the CD69 Hu Blood FACS IC70 is reported as 118 nM.

Same assay, conditions: anti-IgM stimulated, 20 hour incubation, CD69+ of CD20+ cells, Table 2
In the case of `O=C1c2cc3c(n2CCN1c1cc(F)cc(-c2cc(Nc4ccc(N5CCN(C6COC6)CC5)cn4)c4nc[nH]c4c2)c1CO)CCCC3` [Compound 116, 2-[5-fluoro-2-(hydroxymethyl)-3-[7-[[5-[4-(oxetan-3-yl)piperazin-1-yl]-2-pyridyl]amino]-3H-benzimidazol-5-yl]phenyl]-3,4,6,7,8,9-hexahydropyrazino[1,2-a]indol-1-one], the CD69 Hu Blood FACS IC70 is reported as 1300 nM.
With `O=C1c2cc3c(n2CCN1c1cc(F)cc(-c2nc(Nc4ccc(N5CCN(C6COC6)CC5)cc4)c4nc[nH]c4n2)c1CO)CCCC3` [Compound 117, 2-[5-fluoro-2-(hydroxymethyl)-3-[6-[4-[4-(oxetan-3-yl)piperazin-1-yl]anilino]-9H-purin-2-yl]phenyl]-3,4,6,7,8,9-hexahydropyrazino[1,2-a]indol-1-one] the CD69 Hu Blood FACS IC70 was 812 nM.
Molecule `O=C1c2cc3c(n2CCN1c1nccc(-c2cc(Nc4ccc(N5CCN(C6COC6)CC5)cn4)c4nc[nH]c4c2)c1CO)CCCC3` [Compound 118, 2-[3-(hydroxymethyl)-4-[7-[[5-[4-(oxetan-3-yl)piperazin-1-yl]-2-pyridyl]amino]-3H-benzimidazol-5-yl]-2-pyridyl]-3,4,6,7,8,9-hexahydropyrazino[1,2-a]indol-1-one] has a CD69 Hu Blood FACS IC70 of 4300 nM.
For `O=C1c2sc3c(c2CCN1c1cc(F)cc(-c2nc(Nc4ccc(N5CCN(C6COC6)CC5)cc4)c4nc[nH]c4n2)c1CO)CCCC3` [Compound 119, 2-[5-fluoro-2-(hydroxymethyl)-3-[6-[4-[4-(oxetan-3-yl)piperazin-1-yl]anilino]-9H-purin-2-yl]phenyl]-3,4,5,6,7,8-hexahydrobenzothiopheno[2,3-c]pyridin-1-one], the CD69 Hu Blood FACS IC70 was 727 nM.
`O=C1c2cc3n(c2CCN1c1cc(F)cc(-c2nc(Nc4ccc(N5CCN(C6COC6)CC5)cc4)c4nc[nH]c4n2)c1CO)CCCC3` [Compound 120, 2-[5-fluoro-2-(hydroxymethyl)-3-[6-[4-[4-(oxetan-3-yl)piperazin-1-yl]anilino]-9H-purin-2-yl]phenyl]-3,4,6,7,8,9-hexahydropyrido[3,4-b]indolizin-1-one] gave a CD69 Hu Blood FACS IC70 of 1900 nM.
